The values below come from patent publication US20230265151A1, “GIP/GLP1 CO-AGONIST COMPOUNDS” (priority 2020, published 2023).

The structures appear in SMILES notation. Where two headings read alike, the source gives them in different places.

In one test the target is T1, hGCGR (Homo sapiens, UniProt P47871).
T1 construct: expressed in transfected cells
The experiment in a line: Functional cAMP formation (HTRF) in HEK-293 clonal cells expressing hGCGR, 0.1% bovine casein, without or with 1.0% human serum albumin. Particulars: geometric mean, read-out: hGCGR EC50, nM (SEM, n). The class given is cell-based. How it is done: (§1) After a 30-min incubation at 37° C., the resulting increase in intracellular cAMP is quantitatively determined using a CisBio cAMP Dynamic 2 HTRF Assay Kit (62AM4PEJ). Briefly, cAMP levels within the cell are detected by adding the cAMP-d2 conjugate in cell lysis buffer (10 µL) followed by the antibody anti-cAMP-Eu^3+-Cryptate, also in cell lysis buffer (10 µL). The resulting competitive assay is incubated for at least 60 min at room temperature, and then is detected using a PerkinElmer Envision® instrument with excitation at 320 nm and emission at 665 nm and 620 nm. Envision units (emission at 665 nm/620 nm* 10,000) are inversely proportional to the amount of cAMP present and are converted to nM cAMP per well us-ing a cAMP standard curve. […] A relative EC50 value and percent top (Emax) are derived by non-linear regression analysis using the percent maximal response vs. the concentration of peptide added, fitted to a four-parameter logistic equation.

A further test deals with T2, hGIPR (Homo sapiens, UniProt P48546).
T2 construct: expressed in transfected cells
T2 sequence (P48546 22-466): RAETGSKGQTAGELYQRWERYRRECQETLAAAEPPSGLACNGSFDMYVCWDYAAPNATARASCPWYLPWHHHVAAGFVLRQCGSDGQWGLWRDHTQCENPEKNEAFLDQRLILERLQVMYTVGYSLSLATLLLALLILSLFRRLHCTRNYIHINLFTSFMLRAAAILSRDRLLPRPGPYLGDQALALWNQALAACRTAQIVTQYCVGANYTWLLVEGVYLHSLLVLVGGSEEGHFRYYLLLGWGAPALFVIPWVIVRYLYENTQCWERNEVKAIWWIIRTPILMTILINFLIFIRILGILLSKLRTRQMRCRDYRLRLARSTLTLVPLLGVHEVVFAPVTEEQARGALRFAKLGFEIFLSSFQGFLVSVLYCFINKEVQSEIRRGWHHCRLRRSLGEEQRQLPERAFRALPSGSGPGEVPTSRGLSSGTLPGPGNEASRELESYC
In words: Functional cAMP formation (HTRF) in HEK-293 clonal cells expressing hGIPR, 0.1% bovine casein, without or with 1.0% human serum albumin. Conditions: for EC50: cAMP, 0.1% bovine casein (no human serum albumin), geometric mean, read-out: hGIPR EC50, nM (SEM, n); for Emax: read-out: hGIPR Emax, % ± SEM. The format is cell-based. The procedure:
as §1
On the technique in general: Changes in cAMP serve as a functional read-out for many G protein-coupled receptors.

The mark [1] stands for this setting: cAMP, incubated at 37° C., 0.1% bovine casein (no human serum albumin).
The mark [2] stands for this setting: 0.1% bovine casein and 1.0% human serum albumin, 37° C.
[3] abbreviates: HEK293, 0.1% bovine casein and 1.0% human serum albumin, 37° C., percent of maximal response to GIP(1-42)NH2.
The mark [4] stands for this setting: HEK293, percent of maximal response to GIP(1-42)NH2, 37° C., 0.1% bovine casein, arithmetic mean.

T1 sequence (P47871 26-477): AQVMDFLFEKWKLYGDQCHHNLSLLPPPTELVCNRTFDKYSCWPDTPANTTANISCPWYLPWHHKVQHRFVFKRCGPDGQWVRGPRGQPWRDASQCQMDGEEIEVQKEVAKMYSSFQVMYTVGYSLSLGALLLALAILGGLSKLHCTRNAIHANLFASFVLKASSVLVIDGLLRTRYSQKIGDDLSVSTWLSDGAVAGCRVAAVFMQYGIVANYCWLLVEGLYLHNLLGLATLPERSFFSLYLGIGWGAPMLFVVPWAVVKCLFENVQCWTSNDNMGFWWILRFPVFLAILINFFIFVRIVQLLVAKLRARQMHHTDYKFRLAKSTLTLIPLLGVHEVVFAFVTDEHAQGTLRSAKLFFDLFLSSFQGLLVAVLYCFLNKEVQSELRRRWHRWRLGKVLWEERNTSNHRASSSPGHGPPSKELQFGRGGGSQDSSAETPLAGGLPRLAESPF

For orientation: EC50 means the concentration at which the effect is half-maximal. Regarding `CC[C@H](C)[C@H](NC(=O)[C@H](CC(C)C)NC(=O)[C@](C)(Cc1ccc(O)cc1)NC(=O)[C@@H](CCC(=O)O)NC(=O)[C@@H](NC(=O)[C@H](Cc1ccccc1)NC(=O)[C@H](CCC(=O)O)NC(=O)C(C)(C)NC(=O)[C@H](CCC(N)=O)NC(=O)[C@H](C)NC(=O)[C@H](CCCCNC(=O)COCCOCCNC(=O)COCCOCCNC(=O)CC[C@H](NC(=O)CCCc1ccc(C(C)(C)C)cc1)C(=O)O)NC(=O)[C@H](CCCN)NC(=O)[C@H](CC(=O)O)NC(=O)[C@H](CC(C)C)NC(=O)[C@](C)(CC(C)C)NC(=O)[C@@H](NC(=O)[C@H](CO)NC(=O)[C@H](Cc1ccncc1)NC(=O)[C@H](CC(=O)O)NC(=O)[C@H](CO)NC(=O)[C@@H](NC(=O)[C@](C)(Cc1ccccc1F)NC(=O)[C@@H](NC(=O)CNC(=O)[C@H](CCC(=O)O)NC(=O)C(C)(C)NC(=O)[C@@H](N)Cc1ccc(O)cc1)[C@@H](C)O)[C@@H](C)O)[C@@H](C)CC)[C@@H](C)CC)C(=O)N[C@@H](CCC(=O)O)C(=O)NCC(=O)N[C@@H](CCCCNC(=O)COCCOCCNC(=O)COCCOCCNC(=O)CC[C@H](NC(=O)CCCc1ccc(C(C)(C)C)cc1)C(=O)O)C(=O)N1CCC[C@H]1C(=O)N[C@@H](CO)C(=O)N[C@@H](CO)C(=O)NCC(=O)N[C@@H](C)C(=O)N1CCC[C@H]1C(=O)N1CCC[C@H]1C(=O)N1CCC[C@H]1C(=O)N[C@@H](CO)C(N)=O` [Example 134], the EC50 was over 9950 nM at hGCGR (setting [1]) and 0.0238 nM at hGIPR (incubated at 37° C.).
Usually Emax stands for the size of the effect at its maximum, as opposed to the concentration needed. For `CC[C@H](C)[C@H](NC(=O)[C@H](CC(C)C)NC(=O)[C@](C)(Cc1ccc(O)cc1)NC(=O)[C@@H](CCC(=O)O)NC(=O)[C@@H](NC(=O)[C@H](Cc1ccccc1)NC(=O)[C@H](CCCCNC(=O)COCCOCCNC(=O)COCCOCCNC(=O)CCCCCCCCCCCCC(=O)O)NC(=O)C(C)(C)NC(=O)[C@H](CCC(N)=O)NC(=O)[C@H](C)NC(=O)[C@H](CCCCNC(=O)COCCOCCNC(=O)COCCOCCNC(=O)CCCCCCCCCCCCC(=O)O)NC(=O)[C@H](CCCN)NC(=O)[C@H](CC(=O)O)NC(=O)[C@H](CC(C)C)NC(=O)[C@](C)(CC(C)C)NC(=O)[C@@H](NC(=O)[C@H](CO)NC(=O)[C@H](Cc1ccc2ccccc2c1)NC(=O)[C@H](CC(=O)O)NC(=O)[C@H](CO)NC(=O)[C@@H](NC(=O)[C@](C)(Cc1ccccc1F)NC(=O)[C@@H](NC(=O)CNC(=O)[C@H](CCC(=O)O)NC(=O)C(C)(C)NC(=O)[C@@H](N)Cc1ccc(O)cc1)[C@@H](C)O)[C@@H](C)O)[C@@H](C)CC)[C@@H](C)CC)C(=O)N[C@@H](CCC(=O)O)C(=O)NCC(=O)NCC(=O)N1CCC[C@H]1C(=O)N[C@@H](CO)C(=O)N[C@@H](CO)C(=O)NCC(=O)N[C@@H](C)C(=O)N1CCC[C@H]1C(=O)N1CCC[C@H]1C(=O)N1CCC[C@H]1C(=O)N[C@@H](CO)C(N)=O` [Example 255], the EC50 is over 9950 nM at hGCGR (setting [2]); over 9950 nM at hGCGR (cAMP, 37° C., 0.1% bovine casein (no human serum albumin)); 0.0213 nM on hGIPR (37° C.). The Emax at hGIPR (setting [3]) was found to be 93.4%.
Regarding `CC[C@H](C)[C@H](NC(=O)[C@H](CC(C)C)NC(=O)[C@](C)(Cc1ccc(O)cc1)NC(=O)[C@@H](CCC(=O)O)NC(=O)[C@@H](NC(=O)[C@H](Cc1ccccc1)NC(=O)[C@H](CCC(=O)O)NC(=O)C(C)(C)NC(=O)[C@H](CCC(N)=O)NC(=O)[C@H](C)NC(=O)[C@H](CCCCNC(=O)COCCOCCNC(=O)COCCOCCNC(=O)CC[C@H](NC(=O)CCCCCCCCCCCCC(=O)O)C(=O)O)NC(=O)[C@H](CCCN)NC(=O)[C@H](CC(=O)O)NC(=O)[C@H](CC(C)C)NC(=O)[C@](C)(CC(C)C)NC(=O)[C@@H](NC(=O)[C@H](CO)NC(=O)[C@H](Cc1ccco1)NC(=O)[C@H](CC(=O)O)NC(=O)[C@H](CO)NC(=O)[C@@H](NC(=O)[C@](C)(Cc1ccccc1F)NC(=O)[C@@H](NC(=O)CNC(=O)[C@H](CCC(=O)O)NC(=O)C(C)(C)NC(=O)[C@@H](N)Cc1ccc(O)cc1)[C@@H](C)O)[C@@H](C)O)[C@@H](C)CC)[C@@H](C)CC)C(=O)N[C@@H](CCC(=O)O)C(=O)NCC(=O)NCC(=O)N[C@@H](CCCCNC(=O)COCCOCCNC(=O)COCCOCCNC(=O)CC[C@H](NC(=O)CCCCCCCCCCCCC(=O)O)C(=O)O)C(=O)N[C@@H](CO)C(=O)N[C@@H](CO)C(=O)NCC(=O)N[C@@H](C)C(=O)N1CCC[C@H]1C(=O)N1CCC[C@H]1C(=O)N1CCC[C@H]1C(=O)N[C@@H](CO)C(N)=O` [Example 143], the EC50 was over 9950 nM on hGCGR (setting [1]) and 0.022 nM on hGIPR (incubated at 37° C.). The Emax on hGIPR (setting [4]) turned out to be 95%.
With `CCCCCCCCCCCC(=O)N[C@@H](CCC(=O)NCCOCCOCC(=O)NCCOCCOCC(=O)NCCCC[C@H](NC(=O)[C@H](CCCN)NC(=O)[C@H](CC(=O)O)NC(=O)[C@H](CC(C)C)NC(=O)[C@](C)(CC(C)C)NC(=O)[C@@H](NC(=O)[C@H](CO)NC(=O)[C@H](CCCCNC(=O)COCCOCCNC(=O)COCCOCCNC(=O)CC[C@H](NC(=O)CCCCCCCCCCC)C(=O)O)NC(=O)[C@H](CC(=O)O)NC(=O)[C@H](CO)NC(=O)[C@@H](NC(=O)[C@](C)(Cc1ccccc1F)NC(=O)[C@@H](NC(=O)CNC(=O)[C@H](CCC(=O)O)NC(=O)C(C)(C)NC(=O)[C@@H](N)Cc1ccc(O)cc1)[C@@H](C)O)[C@@H](C)O)[C@@H](C)CC)C(=O)N[C@@H](C)C(=O)N[C@@H](CCC(N)=O)C(=O)NC(C)(C)C(=O)N[C@@H](CCC(=O)O)C(=O)N[C@@H](Cc1ccccc1)C(=O)N[C@H](C(=O)N[C@H](CCC(=O)O)C(=O)N[C@@](C)(Cc1ccc(O)cc1)C(=O)N[C@@H](CC(C)C)C(=O)N[C@H](C(=O)N[C@@H](CCC(=O)O)C(=O)NCC(=O)NCC(=O)N1CCC[C@H]1C(=O)N[C@@H](CO)C(=O)N[C@@H](CO)C(=O)NCC(=O)N[C@@H](C)C(=O)N1CCC[C@H]1C(=O)N1CCC[C@H]1C(=O)N1CCC[C@H]1C(=O)N[C@@H](CO)C(N)=O)[C@@H](C)CC)[C@@H](C)CC)C(=O)O` [Example 136], the EC50 on hGCGR (setting [1]) is over 9950 nM. The Emax at hGIPR (setting [4]) stood at 97.4 ± 4.23%.
For `CC[C@H](C)[C@H](NC(=O)[C@H](CC(C)C)NC(=O)[C@](C)(Cc1ccc(O)cc1)NC(=O)[C@@H](CCC(=O)O)NC(=O)[C@@H](NC(=O)[C@H](Cc1ccccc1)NC(=O)[C@H](CCC(=O)O)NC(=O)C(C)(C)NC(=O)[C@H](CCC(N)=O)NC(=O)[C@H](C)NC(=O)[C@H](CCCCNC(=O)COCCOCCNC(=O)COCCOCCNC(=O)CC[C@H](NC(=O)CCCCCCCCCCCCC(=O)O)C(=O)O)NC(=O)[C@H](CCCN)NC(=O)[C@H](CC(=O)O)NC(=O)[C@H](CC(C)C)NC(=O)[C@](C)(CC(C)C)NC(=O)[C@@H](NC(=O)[C@H](CO)NC(=O)[C@@H](NC(=O)[C@H](CC(=O)O)NC(=O)[C@H](CO)NC(=O)[C@@H](NC(=O)[C@](C)(Cc1ccccc1F)NC(=O)[C@@H](NC(=O)CNC(=O)[C@H](CCC(=O)O)NC(=O)C(C)(C)NC(=O)[C@@H](N)Cc1ccc(O)cc1)[C@@H](C)O)[C@@H](C)O)C1CCCCC1)[C@@H](C)CC)[C@@H](C)CC)C(=O)N[C@@H](CCC(=O)O)C(=O)NCC(=O)NCC(=O)N[C@@H](CCCCNC(=O)COCCOCCNC(=O)COCCOCCNC(=O)CC[C@H](NC(=O)CCCCCCCCCCCCC(=O)O)C(=O)O)C(=O)N[C@@H](CO)C(=O)N[C@@H](CO)C(=O)NCC(=O)N[C@@H](C)C(=O)N1CCC[C@H]1C(=O)N1CCC[C@H]1C(=O)N1CCC[C@H]1C(=O)N[C@@H](CO)C(N)=O` [Example 97], the EC50 at hGCGR (setting [2]) and at hGCGR (setting [1]) was over 9950 nM each time. The Emax at hGIPR (setting [3]) was found to be 93.1%; at hGIPR (setting [4]), 97 ± 1.53%.
